Results taken from US20110251252A1, “BIOMARKERS FOR MDM2 INHIBITORS FOR USE IN TREATING DISEASE” (THE REGENTS OF THE UNIVERSITY OF MICHIGAN, priority 2010, published 2011).
Like-named read-outs stand apart in the source and are kept apart here.

Assays:
Assay type in all cases: cell-based, human
[1] = tested on: p53 expression in resistant AML blasts with absent p53 expression; assay: Ex vivo AML blasts epigenetic and MDM2 inhibitor apoptosis assay; details: alone or in combination, followed by MI-219; four AML cases with absent or very low p53 mRNA
Description: Blasts enriched to >90% purity using methods detailed above were incubated with either DMSO or 0.5 μM 5-azacytidine (A2385, Sigma-Aldrich, Saint Louis, Mo.) for 48 hours (with 5-azacytidine replenished every 24 hours). During the last 12 hours of incubation, blasts were further aliquoted and treated with either 0.3 μM Trichostatin A (#9950, Cell Signaling Technology, Danvers, Mass.) or DMSO. At the end of the 48 hour incubation, each of the four differentially treated subgroups of blasts were treated with MI-219 at final concentrations of 0, 2.5, 5 and 10 μM for 40 hours, followed by annexin-V/PI FACS-based analysis of apoptosis. Aliquots of blasts in parallel were cultured in a 48-well plate at 10^6 cells per well in 1 ml of medium and treated with 10 μM MI-219 or solvent for 8 hours. Blasts were harvested, lysed and protein prepared for immunoblotting as described.
Attempting to obtain evidence for epigenetic p.53 gene silencing in AML with absent p53 mRNA expression, four AML cases were selected based on the availability of cryopreserved cells with absent or very low p53 mRNA for further analysis and treated purified blasts with trichostatin A and azacytidine (alone or in combination) followed by treatment with MI-219. Readouts for these experiments was the fraction of blasts undergoing apoptosis and posttreatment p53 protein levels. […]

MONO-MAC-6 = assay: MI-219 apoptosis induction in AML cell lines; details: MONO-MAC-6 AML cell line, p53 (exon5-9) mut
Description: (§1) Next—the ability of MI-219 to induce apoptosis in 19 AML-derived cell lines was assessed.

AP-1060 = assay: MI-219 apoptosis induction in AML cell lines; details: AP-1060 AML cell line, p53 wt
Description: as §1

OCI-AML-5 = assay: MI-219 apoptosis induction in AML cell lines; details: OCI-AML-5 AML cell line, p53 wt
Description: as §1

AML-193 = assay: MI-219 apoptosis induction in AML cell lines; details: AML-193 AML cell line, p53 (exon5-9) mut
Description: as §1

MOLM-13 = assay: MI-219 apoptosis induction in AML cell lines; details: MOLM-13 AML cell line, p53 wt
Description: as §1

ML-2 = assay: MI-219 apoptosis induction in AML cell lines; details: ML-2 AML cell line, p53 wt
Description: as §1

Kasumi-1 = assay: MI-219 apoptosis induction in AML cell lines; details: Kasumi-1 AML cell line, p53 (exon5-9) mut
Description: as §1

SIG-M5 = assay: MI-219 apoptosis induction in AML cell lines; details: SIG-M5 AML cell line, p53 wt
Description: as §1

OCI-M2 = assay: MI-219 apoptosis induction in AML cell lines; details: OCI-M2 AML cell line, p53 (exon5-9) mut
Description: as §1

Kasumi-3 = assay: MI-219 apoptosis induction in AML cell lines; details: Kasumi-3 AML cell line, p53 (exon5-9) mut
Description: as §1

GF-D8 = assay: MI-219 apoptosis induction in AML cell lines; details: GF-D8 AML cell line, p53 (exon5-9) mut
Description: as §1

SKM-1 = assay: MI-219 apoptosis induction in AML cell lines; details: SKM-1 AML cell line, p53 (exon5-9) mut
Description: as §1

OCI-AML-3 = assay: MI-219 apoptosis induction in AML cell lines; details: OCI-AML-3 AML cell line, p53 wt
Description: as §1

HL60 = assay: MI-219 apoptosis induction in AML cell lines; details: HL60 AML cell line, p53 deleted
Description: as §1

ME-1 = assay: MI-219 apoptosis induction in AML cell lines; details: ME-1 AML cell line, p53 (exon5-9) mut
Description: as §1

MOLM-16 = assay: MI-219 apoptosis induction in AML cell lines; details: MOLM-16 AML cell line, p53 (exon5-9) mut
Description: as §1

OCI-AML-2 = assay: MI-219 apoptosis induction in AML cell lines; details: OCI-AML-2 AML cell line, p53 wt
Description: as §1

MUTZ-2 = assay: MI-219 apoptosis induction in AML cell lines; details: MUTZ-2 AML cell line, p53 wt
Description: as §1

KG-1 = assay: MI-219 apoptosis induction in AML cell lines; details: KG-1 AML cell line, p53 (exon5-9) mut
Description: as §1

p53 = p53 immunoblot of AML cell lines after MI-219 treatment
AML blasts = assay: Ex vivo AML blasts MDM2 inhibitor apoptosis assay (annexin-V/PI FACS)
Description: Blasts enriched to >90% purity using methods detailed above were incubated in serum-supplemented RPMI medium at 2.5×10^5 cells in 100 μl final volume in the presence of various concentrations of the MDM2 inhibitors MI-219 and MI-63 (range 0.625-20 μM) for 40 hours. Apoptosis and necrosis was measured for each treated blast aliquot using annexin-V/PI FACS-based readouts and values subsequently normalized to spontaneous death rates in untreated parallel cultures according to the formula (% alive=% mean alive treated samples/% mean alive paired non-treated samples).
To evaluate the efficacy of MDM2 inhibitor-mediated apoptotic cell kill in AML blasts ex vivo, blasts from 109 AML specimens (97 with wild type p53 and 12 with mutant p53 by exon 5-9 exon sequence analysis) were purified to >90% purity and cell aliquots were incubated for 40 hours with escalating concentrations of the MDM2 inhibitors MI-219 (N=109) and MI-63 (N=60). The apoptotic cell fraction in treated samples was subsequently quantitated through annexin V-PI-based FACS analysis and normalized to measurements in paired untreated cells.

[2] = ex vivo, blasts from 109 patients

## CC(/C=C/C(=O)NO)=C\[C@@H](C)C(=O)c1ccc(N(C)C)cc1 [Trichostatin A]
[1]
  p53 expression after treatment: Does Not Induce p53 Expression

## CC(C)(C)C[C@H]1N[C@@H](C(=O)NCCN2CCOCC2)[C@H](c2cccc(Cl)c2F)[C@@]12C(=O)Nc1cc(Cl)ccc12 [MI-63]
MONO-MAC-6
  IC50: > 10 µM
AP-1060
  IC50: 4.03 µM
OCI-AML-5
  IC50: > 10 µM
AML-193
  IC50: > 10 µM
MOLM-13
  IC50: 2.85 µM
ML-2
  IC50: 7.47 µM
Kasumi-1
  IC50: > 10 µM
SIG-M5
  IC50: 3.8 µM
OCI-M2
  IC50: > 10 µM
Kasumi-3
  IC50: > 10 µM
GF-D8
  IC50: > 10 µM
SKM-1
  IC50: > 10 µM
OCI-AML-3
  IC50: > 10 µM
HL60
  IC50: > 10 µM
ME-1
  IC50: > 10 µM
MOLM-16
  IC50: > 10 µM
OCI-AML-2
  IC50: 4.74 µM
MUTZ-2
  IC50: 1.17 µM
KG-1
  IC50: > 10 µM

## COc1ccc(C2=N[C@@H](c3ccc(Cl)cc3)[C@@H](c3ccc(Cl)cc3)N2C(=O)N2CCNC(=O)C2)c(OC(C)C)c1 [Nutlin, reference compound]
MONO-MAC-6
  IC50: > 10 µM
AP-1060
  IC50: 6.77 µM
OCI-AML-5
  IC50: > 10 µM
AML-193
  IC50: > 10 µM
MOLM-13
  IC50: 4.04 µM
ML-2
  IC50: 10.4 µM
Kasumi-1
  IC50: > 10 µM
SIG-M5
  IC50: 4.73 µM
OCI-M2
  IC50: > 10 µM
Kasumi-3
  IC50: > 10 µM
GF-D8
  IC50: > 10 µM
SKM-1
  IC50: > 10 µM
OCI-AML-3
  IC50: > 10 µM
HL60
  IC50: > 10 µM
ME-1
  IC50: > 10 µM
MOLM-16
  IC50: > 10 µM
OCI-AML-2
  IC50: 7.22 µM
MUTZ-2
  IC50: 0.951 µM
KG-1
  IC50: > 10 µM

## CC(C)(C)C[C@H]1N[C@@H](C(=O)NCC[C@H](O)CO)[C@H](c2cccc(Cl)c2)[C@@]12C(=O)Nc1cc(Cl)c(F)cc12.Cl [MI-219]
MONO-MAC-6
  IC50: > 20 µM
AP-1060
  IC50: 4.22 µM
OCI-AML-5
  IC50: 13.8 µM
AML-193
  IC50: > 20 µM
MOLM-13
  IC50: 2.66 µM
ML-2
  IC50: 7.04 µM
Kasumi-1
  IC50: > 20 µM
SIG-M5
  IC50: 3.44 µM
OCI-M2
  IC50: > 20 µM
Kasumi-3
  IC50: > 20 µM
GF-D8
  IC50: > 20 µM
SKM-1
  IC50: > 20 µM
OCI-AML-3
  IC50: 18.2 µM
HL60
  IC50: > 20 µM
ME-1
  IC50: > 20 µM
MOLM-16
  IC50: > 20 µM
OCI-AML-2
  IC50: 5.25 µM
MUTZ-2
  IC50: 1.28 µM
KG-1
  IC50: > 20 µM
p53; AP-1060
  p53 immunoblot (MI-219 10 μM): Inducible
p53; GF-D8
  p53 immunoblot (MI-219 10 μM): non-inducible
p53; Kasumi-1
  p53 immunoblot (MI-219 10 μM): non-inducible
p53; Kasumi-3
  p53 immunoblot (MI-219 10 μM): non-inducible
p53; ML-2
  p53 immunoblot (MI-219 10 μM): Inducible
p53; MOLM-13
  p53 immunoblot (MI-219 10 μM): Inducible
p53; MOLM-16
  p53 immunoblot (MI-219 10 μM): non-inducible
p53; MONO-MAC-6
  p53 immunoblot (MI-219 10 μM): non-inducible
p53; MUTZ-2
  p53 immunoblot (MI-219 10 μM): Inducible
p53; OCI-AML-2
  p53 immunoblot (MI-219 10 μM): Inducible
p53; OCI-AML-3
  p53 immunoblot (MI-219 10 μM): Inducible
p53; OCI-AML-5
  p53 immunoblot (MI-219 10 μM): Inducible
p53; OCI-M2
  p53 immunoblot (MI-219 10 μM): non-inducible
p53; SIG-M5
  p53 immunoblot (MI-219 10 μM): Inducible
p53; SKM-1
  p53 immunoblot (MI-219 10 μM): non-inducible
AML blasts; 21/97 cases
  fraction of AML cases with wild type p53 with IC50>10 μM: 22%
AML blasts; 32/97 cases
  fraction of AML cases with wild type p53 exon 5-9 that were very sensitive (IC50<2 μM): 33%
  fraction of AML cases with wild type p53 with IC50>5 μM: 33%
AML blasts; 33/97 cases
  fraction of AML cases with wild type p53 exon 5-9 that were sensitive (IC50>2 μM to <5 μM): 34%
AML blasts; FLT3-ITD, N=19
  fraction of AML samples with FLT3-ITD with IC50 <2 μM: 58%
  fraction of AML samples with FLT3-ITD with IC50 <5 μM: 84%
AML blasts; all AML with wild type p53 exon 5-9, read-out: threshold IC50 value at the 25th percentile
  IC50: 1.78 µM
AML blasts; all AML with wild type p53 exon 5-9, read-out: threshold IC50 value at the 50th percentile
  IC50: 3.2 µM
AML blasts; [2]
  fraction of AML cases with unmutated p53 with primary resistance: ~30%
  sensitivity of AML cases with mutated p53: resistant
AML blasts; previously untreated AML cases, exclusive of p53 exon 5-9 mutations, read-out: mean IC50
  IC50: 6.6 µM
AML blasts; primary AML, exclusive of cases with p53 exon 5-9 mutations, 40 hours, read-out: mean IC50
  IC50: 6.1 µM
AML blasts; relapsed AML cases, exclusive of p53 exon 5-9 mutations, read-out: mean IC50
  IC50: 4.4 µM
AML blasts; secondary AML, exclusive of cases with p53 exon 5-9 mutations, 40 hours, read-out: mean IC50
  IC50: 7.9 µM
AML blasts; tAML, exclusive of cases with p53 exon 5-9 mutations, 40 hours, read-out: mean IC50
  IC50: 4.8 µM

## Nc1ncn([C@@H]2O[C@H](CO)[C@@H](O)[C@H]2O)c(=O)n1 [Azacytidine, 5-azacytidine]
[1]
  p53 expression after treatment: Does Not Induce p53 Expression
